Results from patent US12263479B2, “Array microfluidic chip and method of antibiotic susceptibility testing” (MEDFLUID CO., LTD., priority 2021, dated 2025).
Values after ≈ are worked out from the molar mass of the structure shown. Like-named read-outs stand apart in the source and are kept apart here.

Assays:
[1] = tested on: E. coli ATCC25922; test: antibiotic susceptibility testing on the array microfluidic chip (redox indicator discoloration); assay type: cell-based, Escherichia coli; details: for MIC: Escherichia coli, read-out: minimum inhibitory concentration (MIC)
Text: (§1) In the present experiment, the array microfluidic chip of the present disclosure is used to perform the antibiotic susceptibility testing on Escherichia coli ATCC25922 (“E. coli ATCC25922” hereafter) and Staphylococcus aureus ATCC29213 (“S. aureus ATCC29213” hereafter) to three antibiotics, namely Amikacin, Gentamicin and Vancomycin.
(§2) In the experiment, the dried powders of Amikacin, Gentamicin or Vancomycin are respectively placed in different reaction wells of the array microfluidic chip with different contents, and then the array microfluidic chip is sealed and keeps refrigerated. Next, redox indicators with proper amounts are respectively added to the bacteria-containing mediums including E. coli ATCC25922 or S. aureus ATCC29213, and the bacteria-containing mediums are transported to different reaction wells of different array microfluidic chips and then mixed with the antibiotic powders with different contents thereof so as to form the reaction solutions including different concentrations of antibiotics.
Next, the array microfluidic chips are placed in the incubator and cultured at 37° C., and the antibiotic susceptibilities of E. coli ATCC25922 and S. aureus ATCC29213 to Amikacin, Gentamicin and Vancomycin are further assessed based on the discoloration of the reaction solutions. In detail, if E. coli ATCC25922 and S. aureus ATCC29213 can grow under the existence of a specific antibiotic with a particular concentration, the color of the reaction solution including the redox indicator will gradually change from blue to purple, and eventually to pink, and the discoloration can be observed on the array microfluidic chip directly. Therefore, the assessing time of the method of antibiotic susceptibility testing of the present disclosure can be greatly shortened.
Please refer to FIG. 10A, FIG. 10B, FIG. 10C and Table 2 simultaneously. […] Furthermore, in FIG. 10C, the far left one is the image of the independent well performed a negative control test, and it is noted that the testing result of the independent well is not shown in Table 2. […]

[2] = tested on: S. aureus ATCC29213; details: cited from earlier work
[3] = tested on: S. aureus ATCC29213; test: antibiotic susceptibility testing on the array microfluidic chip (redox indicator discoloration); assay type: cell-based, Staphylococcus aureus; details: 5 hours and 30 minutes
Text: as §1, §2
Next, the array microfluidic chips are placed in the incubator and cultured at 37° C., and the antibiotic susceptibilities of E. coli ATCC25922 and S. aureus ATCC29213 to Amikacin, Gentamicin and Vancomycin are further assessed based on the discoloration of the reaction solutions. […]

[4] = tested on: E. coli ATCC25922; details: cited from earlier work

## NCC[C@H](O)C(=O)N[C@@H]1C[C@H](N)[C@@H](O[C@H]2O[C@H](CN)[C@@H](O)[C@H](O)[C@H]2O)[C@H](O)[C@H]1O[C@H]1O[C@H](CO)[C@@H](O)[C@H](N)[C@H]1O [Amikacin]
[1]; ATCC25922, array microfluidic chip, 37° C., 4 hours
  MIC: 1 µg/mL (≈ 1.71 µM)
[2]
  CLSI standard value MIC: 1˜4 μg/mL
[3]; Staphylococcus aureus, ATCC29213, 37° C., read-out: minimum inhibitory concentration
  MIC: 1 µg/mL (≈ 1.71 µM)
[4]
  CLSI standard value MIC: 0.5˜4 μg/mL

## CN[C@H](CC(C)C)C(=O)N[C@H]1C(=O)N[C@@H](CC(N)=O)C(=O)N[C@H]2C(=O)N[C@H]3C(=O)N[C@H](C(=O)N[C@H](C(=O)O)c4cc(O)cc(O)c4-c4cc3ccc4O)[C@H](O)c3ccc(c(Cl)c3)Oc3cc2cc(c3O[C@@H]2O[C@H](CO)[C@@H](O)[C@H](O)[C@H]2O[C@H]2C[C@](C)(N)[C@H](O)[C@H](C)O2)Oc2ccc(cc2Cl)[C@H]1O [Vancomycin]
[1]; ATCC25922, 4 h
  MIC: > 16 µg/mL
[2]
  CLSI standard value MIC: 0.5˜2 μg/mL
[4]
  CLSI standard value MIC: R-resistance

## Gentamicin
[1]; array microfluidic chip, 37° C., 4 hours
  minimum inhibitory concentration (MIC): 1 µg/mL
[2]
  CLSI standard value MIC: 0.12˜1 μg/mL
[3]; 37° C.
  minimum inhibitory concentration: 0.25 µg/mL
[4]
  CLSI standard value MIC: 0.251 µg/mL
